Here are results for six compounds from article PMC2894858 (PLoS ONE, 2010).

Like-named read-outs stand apart in the source and are kept apart here. Non-standard residues stand in square brackets, D forms with d. Residues, ends and D or L forms follow the SMILES beside them. Aib = CC(C)(N)C(=O)O

Assay [1] addresses T1, BoNT/A LC (Clostridium botulinum, UniProt P0DPI0). Conditions: cited from earlier work; for IC50: read-out: Reported Ki (cell: IC50).
Assay [2] has as its target T1, BoNT/A LC. Description: biochemical. The format is biochemical. The settings on record: for Ki range in words: pH 7.3.
Target sequence in this assay (P0DPI0 2-448 limits assumed): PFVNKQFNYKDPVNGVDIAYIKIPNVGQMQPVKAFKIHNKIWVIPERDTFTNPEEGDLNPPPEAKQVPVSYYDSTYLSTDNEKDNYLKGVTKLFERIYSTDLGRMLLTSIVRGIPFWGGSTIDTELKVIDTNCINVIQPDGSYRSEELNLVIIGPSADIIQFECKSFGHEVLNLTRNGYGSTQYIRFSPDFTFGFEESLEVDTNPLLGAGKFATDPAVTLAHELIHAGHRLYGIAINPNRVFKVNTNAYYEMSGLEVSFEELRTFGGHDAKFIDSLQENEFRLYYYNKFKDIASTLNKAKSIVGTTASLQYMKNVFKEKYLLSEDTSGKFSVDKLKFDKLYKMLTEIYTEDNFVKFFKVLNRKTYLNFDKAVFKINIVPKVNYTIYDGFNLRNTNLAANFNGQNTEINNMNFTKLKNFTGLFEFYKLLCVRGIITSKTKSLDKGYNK

In the case of `O=C(/C=C/c1ccc(Cl)cc1)NO` [4-chlorocinnamic hydroxamate], the IC50 at BoNT/A LC [1] is 15 µM.

As for `NC(N)=NCCC[C@H](N)C(=O)NO` [ArgHX, arginine hydroxamate], the IC50 on BoNT/A LC [1] is 60 µM.

For the compound `CSCC[C@H](NC(=O)[C@H](C)NC(=O)C(C)(C)NC(=O)[C@H](Cc1c[nH]c2ccccc12)NC(=O)[C@H](CCCNC(=N)N)NC(=O)[C@@H](N)CCCNC(=N)N)C(=O)N[C@@H](CC(C)C)C(N)=O` [JTH-NB72-38] (H-RRW[Aib]AML-NH2), on BoNT/A LC [2], the affinity, expressed as Ki, was 0.991 ± 0.117 µM and the “Ki range in words” value is given as “nM range”.

For the compound `CSCC[C@H](NC(=O)[C@H](C)NC(=O)C(C)(C)NC(=O)[C@H](Cc1ccccc1)NC(=O)[C@H](CCCNC(=N)N)NC(=O)[C@@H](N)CCCNC(=N)N)C(=O)N[C@@H](CC(C)C)C(N)=O` [JTH-NB72-39] (H-RRF[Aib]AML-NH2), on BoNT/A LC [2], the Ki turned out to be 0.638 ± 0.092 µM and the “Ki range in words” value is recorded as “nM range”.

For the compound “Fmoc-L-Leu-OH (0.124 g, 0.350 mmol, 3.50 equiv), Fmoc-L-Met-OH (0.130 g, 0.350 mmol, 3.50 equiv), Fmoc-L-Ala-OH (0.115 g, 0.350 mmol, 3.50 equiv), Fmoc-Aib-OH (0.114 g, 0.350 mmol, 3.50 equiv), Fmoc-L-1-Nal-OH (0.153 g, 0.350 mmol, 3.50 equiv), Fmoc-L-Arg(Pbf)-OH (0.227 g, 0.350 mmol, 3.50 equiv), Fmoc-L-Arg(Pbf)-OH (0.227 g, 0.350 mmol, 3.50 equiv) [JTH-NB72-35]”, on BoNT/A LC [2], the “potency compared with I1” value is recorded as “none of them were as potent as I1”, the “potency rank among the three reported PLMs” value was “the most potent of the three reported PLMs” and the “Ki range in words” value is “nM range”.

Regarding QRATKM, in the assay with BoNT/A LC [1], the inhibition constant Ki was 133 µM and the half-inhibitory concentration (IC50) is 133 µM.
